Molecules are shown by their SMILES.

Broadly, the AC50 is the concentration giving half of the maximal activity seen.

For experiment [1], the target named is Voltage-gated inwardly rectifying potassium channel KCNH2 (Homo sapiens, UniProt Q12809). Type of experiment: functional. The following applies: read-out: AC50.
Experiment [2] concerns the target Gamma-aminobutyric acid receptor subunit alpha-1 (Rattus norvegicus, UniProt P62813). Format: functional.
Experiment [3] concerns the target T1, 5-hydroxytryptamine receptor 3A (Homo sapiens, UniProt P46098).
T1 sequence (P46098 whole entry): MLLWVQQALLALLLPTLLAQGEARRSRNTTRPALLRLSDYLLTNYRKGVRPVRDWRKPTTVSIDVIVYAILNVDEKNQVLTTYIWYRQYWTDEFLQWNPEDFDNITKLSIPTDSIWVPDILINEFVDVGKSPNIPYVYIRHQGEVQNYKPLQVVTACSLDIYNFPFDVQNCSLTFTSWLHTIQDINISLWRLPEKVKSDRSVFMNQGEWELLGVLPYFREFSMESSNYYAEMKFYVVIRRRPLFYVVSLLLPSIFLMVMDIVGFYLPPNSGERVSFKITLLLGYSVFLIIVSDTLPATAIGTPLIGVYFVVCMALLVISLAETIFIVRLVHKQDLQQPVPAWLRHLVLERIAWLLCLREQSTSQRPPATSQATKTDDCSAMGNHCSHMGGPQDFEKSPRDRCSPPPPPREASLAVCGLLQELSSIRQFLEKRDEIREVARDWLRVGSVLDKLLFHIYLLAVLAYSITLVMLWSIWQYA
Format: functional.

The target of experiment [4] is T2, Alpha-2A adrenergic receptor (Homo sapiens, UniProt P08913).
T2 sequence (P08913 whole entry): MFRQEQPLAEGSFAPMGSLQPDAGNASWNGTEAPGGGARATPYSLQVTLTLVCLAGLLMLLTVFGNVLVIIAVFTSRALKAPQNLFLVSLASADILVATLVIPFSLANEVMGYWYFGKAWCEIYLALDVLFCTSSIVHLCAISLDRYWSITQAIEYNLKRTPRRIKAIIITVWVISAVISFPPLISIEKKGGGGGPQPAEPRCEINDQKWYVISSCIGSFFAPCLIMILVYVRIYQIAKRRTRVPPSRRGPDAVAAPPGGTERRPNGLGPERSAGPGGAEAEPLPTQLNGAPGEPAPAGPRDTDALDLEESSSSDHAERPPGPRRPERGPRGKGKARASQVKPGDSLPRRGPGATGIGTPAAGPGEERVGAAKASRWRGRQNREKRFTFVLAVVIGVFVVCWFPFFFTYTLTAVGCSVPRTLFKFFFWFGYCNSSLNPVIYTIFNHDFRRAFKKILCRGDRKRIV
Format: functional, cell-based.

For experiment [5], the target named is Motilin receptor (Homo sapiens, UniProt O43193).
Experiment [6] concerns the target Kappa-type opioid receptor (Homo sapiens, UniProt P41145).
The target of experiment [7] is T3, Alpha-1A adrenergic receptor (Homo sapiens, UniProt P35348).
T3 sequence (P35348 whole entry): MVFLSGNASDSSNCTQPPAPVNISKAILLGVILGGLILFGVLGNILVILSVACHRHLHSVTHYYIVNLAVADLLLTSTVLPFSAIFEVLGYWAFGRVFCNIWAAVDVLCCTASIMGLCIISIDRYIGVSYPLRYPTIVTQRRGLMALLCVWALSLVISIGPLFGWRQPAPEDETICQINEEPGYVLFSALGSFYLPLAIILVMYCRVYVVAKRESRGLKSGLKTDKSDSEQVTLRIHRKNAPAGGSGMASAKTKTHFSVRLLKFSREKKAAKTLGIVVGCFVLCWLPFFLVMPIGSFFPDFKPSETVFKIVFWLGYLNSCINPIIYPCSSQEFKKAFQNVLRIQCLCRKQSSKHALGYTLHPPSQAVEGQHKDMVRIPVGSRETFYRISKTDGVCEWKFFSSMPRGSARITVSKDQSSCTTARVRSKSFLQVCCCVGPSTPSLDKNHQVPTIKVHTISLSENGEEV
Type of experiment: functional, cell-based.

For experiment [8], the target named is T4, 5-hydroxytryptamine receptor 1A (Homo sapiens, UniProt P08908).
T4 sequence (P08908 whole entry): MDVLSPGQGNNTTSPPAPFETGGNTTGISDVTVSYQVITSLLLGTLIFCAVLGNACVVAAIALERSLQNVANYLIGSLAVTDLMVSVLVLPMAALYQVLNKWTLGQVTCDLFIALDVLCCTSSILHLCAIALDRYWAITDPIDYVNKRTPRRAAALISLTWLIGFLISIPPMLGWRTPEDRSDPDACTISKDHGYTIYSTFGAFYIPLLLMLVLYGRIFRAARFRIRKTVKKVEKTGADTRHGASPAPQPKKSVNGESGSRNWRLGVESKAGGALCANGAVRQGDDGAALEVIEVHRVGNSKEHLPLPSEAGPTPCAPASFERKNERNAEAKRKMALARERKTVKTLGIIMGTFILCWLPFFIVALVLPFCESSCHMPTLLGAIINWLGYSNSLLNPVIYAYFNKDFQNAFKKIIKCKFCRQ
Type of experiment: functional, cell-based.

The target of experiment [9] is T5, Adenosine receptor A3 (Homo sapiens, UniProt P0DMS8).
T5 sequence (P0DMS8 whole entry): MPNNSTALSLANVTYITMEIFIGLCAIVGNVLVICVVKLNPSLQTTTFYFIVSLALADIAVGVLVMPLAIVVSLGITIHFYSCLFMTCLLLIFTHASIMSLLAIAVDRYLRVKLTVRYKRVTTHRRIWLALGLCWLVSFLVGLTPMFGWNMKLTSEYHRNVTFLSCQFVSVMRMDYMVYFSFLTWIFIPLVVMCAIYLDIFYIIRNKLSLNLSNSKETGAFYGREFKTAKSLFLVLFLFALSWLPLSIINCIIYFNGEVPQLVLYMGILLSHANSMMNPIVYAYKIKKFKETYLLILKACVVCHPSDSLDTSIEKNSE

Experiment [10] has as its target T3, Alpha-1A adrenergic receptor. Format: functional, cell-based. This is another data set of the same source.
Note: assay procedure not described here.

Kappa-type opioid receptor, sequence (P41145 whole entry): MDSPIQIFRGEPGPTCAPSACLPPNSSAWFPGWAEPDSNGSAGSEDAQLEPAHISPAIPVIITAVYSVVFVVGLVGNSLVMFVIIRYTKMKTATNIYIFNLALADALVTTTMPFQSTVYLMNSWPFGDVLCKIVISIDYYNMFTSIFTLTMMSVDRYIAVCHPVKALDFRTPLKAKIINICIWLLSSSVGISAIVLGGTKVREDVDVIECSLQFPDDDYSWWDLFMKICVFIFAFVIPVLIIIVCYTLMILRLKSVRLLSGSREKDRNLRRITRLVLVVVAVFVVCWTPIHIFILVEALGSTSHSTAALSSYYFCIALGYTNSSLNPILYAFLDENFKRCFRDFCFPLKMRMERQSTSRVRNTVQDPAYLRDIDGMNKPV
Voltage-gated inwardly rectifying potassium channel KCNH2, sequence (Q12809 whole entry): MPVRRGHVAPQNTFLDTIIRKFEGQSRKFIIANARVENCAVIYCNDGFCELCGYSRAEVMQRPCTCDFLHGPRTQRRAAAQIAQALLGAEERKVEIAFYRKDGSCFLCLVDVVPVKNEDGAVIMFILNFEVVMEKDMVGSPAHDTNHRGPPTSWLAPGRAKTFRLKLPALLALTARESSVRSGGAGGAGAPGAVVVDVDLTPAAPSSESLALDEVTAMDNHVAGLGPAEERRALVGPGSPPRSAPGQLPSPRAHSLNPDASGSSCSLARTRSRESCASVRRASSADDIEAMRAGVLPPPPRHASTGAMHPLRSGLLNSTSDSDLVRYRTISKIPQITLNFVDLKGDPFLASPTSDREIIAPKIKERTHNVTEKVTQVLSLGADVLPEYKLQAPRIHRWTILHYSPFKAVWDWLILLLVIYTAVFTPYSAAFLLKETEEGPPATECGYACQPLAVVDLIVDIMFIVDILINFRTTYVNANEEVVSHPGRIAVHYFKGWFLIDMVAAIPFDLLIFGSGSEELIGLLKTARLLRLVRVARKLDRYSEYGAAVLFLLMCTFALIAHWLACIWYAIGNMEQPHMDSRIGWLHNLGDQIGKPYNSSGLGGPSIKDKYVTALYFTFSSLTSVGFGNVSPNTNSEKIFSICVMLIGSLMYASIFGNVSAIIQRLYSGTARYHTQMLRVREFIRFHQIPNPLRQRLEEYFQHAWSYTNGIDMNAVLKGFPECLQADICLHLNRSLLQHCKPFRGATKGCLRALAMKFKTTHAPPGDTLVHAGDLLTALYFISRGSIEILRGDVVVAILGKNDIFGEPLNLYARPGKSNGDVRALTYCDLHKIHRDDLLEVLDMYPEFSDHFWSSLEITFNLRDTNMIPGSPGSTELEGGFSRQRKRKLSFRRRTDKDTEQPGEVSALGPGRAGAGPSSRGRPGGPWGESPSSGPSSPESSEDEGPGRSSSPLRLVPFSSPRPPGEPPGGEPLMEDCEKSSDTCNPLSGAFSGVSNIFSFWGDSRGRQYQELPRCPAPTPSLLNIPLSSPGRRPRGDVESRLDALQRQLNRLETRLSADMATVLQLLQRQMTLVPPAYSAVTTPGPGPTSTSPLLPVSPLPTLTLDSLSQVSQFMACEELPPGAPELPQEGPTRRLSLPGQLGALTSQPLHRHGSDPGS
Gamma-aminobutyric acid receptor subunit alpha-1, sequence (P62813 whole entry): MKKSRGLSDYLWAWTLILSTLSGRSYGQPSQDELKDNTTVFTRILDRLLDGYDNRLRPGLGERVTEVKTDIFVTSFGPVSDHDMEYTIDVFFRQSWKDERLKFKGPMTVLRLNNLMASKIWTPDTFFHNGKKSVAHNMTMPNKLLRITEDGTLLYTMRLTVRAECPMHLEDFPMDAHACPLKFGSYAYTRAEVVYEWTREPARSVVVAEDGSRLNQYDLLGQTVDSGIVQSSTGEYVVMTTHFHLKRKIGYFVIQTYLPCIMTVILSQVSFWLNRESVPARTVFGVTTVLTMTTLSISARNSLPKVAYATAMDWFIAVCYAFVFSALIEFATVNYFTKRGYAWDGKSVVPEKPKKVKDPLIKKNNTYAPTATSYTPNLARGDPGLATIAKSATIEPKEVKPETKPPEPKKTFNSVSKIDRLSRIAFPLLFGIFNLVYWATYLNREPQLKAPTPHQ
Motilin receptor, sequence (O43193 whole entry): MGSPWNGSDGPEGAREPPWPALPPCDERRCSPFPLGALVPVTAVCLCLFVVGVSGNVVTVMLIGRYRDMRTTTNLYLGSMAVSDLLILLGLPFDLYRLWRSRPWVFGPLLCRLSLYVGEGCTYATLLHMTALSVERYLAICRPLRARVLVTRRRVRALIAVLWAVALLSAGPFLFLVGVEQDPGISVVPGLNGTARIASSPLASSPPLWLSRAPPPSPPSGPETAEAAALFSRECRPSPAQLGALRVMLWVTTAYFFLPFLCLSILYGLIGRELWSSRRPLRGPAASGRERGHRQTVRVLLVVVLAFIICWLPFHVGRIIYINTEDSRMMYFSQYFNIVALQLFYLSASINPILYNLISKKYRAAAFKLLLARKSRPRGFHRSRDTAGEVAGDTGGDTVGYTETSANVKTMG

Consider `C#C[C@]1(O)CC[C@H]2[C@@H]3CCC4=CCCC[C@@H]4[C@H]3CC[C@@]21C` [LYNESTRENOL], for which the half-maximal activity concentration (AC50) in experiment [1] was more than 30 µM; in experiment [2], more than 30 µM; in [3], more than 30 µM; in [4], more than 30 µM; in experiment [5], more than 30 µM; in experiment [6] it was 1.5 µM. In addition, the AC50 in [7], in [8], in experiment [9] and in [10] was more than 30 µM in each case.

Regarding `Cc1cccc(C)c1NC(=O)C1CCCCN1C` (stereo not given) [MEPIVACAINE], the AC50 in experiment [1], in experiment [2], in experiment [3], in [4], in [5] and in experiment [6] was more than 30 µM each time. In addition, the concentration at half-maximal activity (AC50) in [7], in experiment [8], in experiment [9] and in experiment [10] was more than 30 µM each time.

On to `C[C@]12CCC(=O)C=C1CC[C@@H]1[C@@H]2CC[C@@]2(C)[C@H]1CC[C@]2(C)O` [METHYLTESTOSTERONE], for which the half-maximal activity concentration (AC50) in experiment [1], in experiment [2], in experiment [3], in experiment [4], in experiment [5] and in [6] was more than 30 µM in each case. For the same molecule, the AC50 in experiment [7] was more than 30 µM; in experiment [8] it was more than 30 µM; in experiment [9], more than 30 µM; in [10], 27 µM.

`Cc1cc(-c2ccccc2)nnc1NCCN1CCOCC1` [MINAPRINE]: the AC50 in experiment [1] was 3.44 µM; in [2], more than 10 µM; in [3], more than 30 µM; in experiment [4] it was more than 10 µM; in [5], more than 10 µM; in [6], more than 10 µM. For the same molecule, the concentration at half-maximal activity (AC50) in experiment [7] is more than 30 µM; in [8], more than 10 µM; in experiment [9], more than 30 µM; in experiment [10], more than 30 µM.

`NC(=O)C[S+]([O-])C(c1ccccc1)c1ccccc1` (stereo not given) [MODAFINIL]: the AC50 in experiment [1] was more than 30 µM; in [2], more than 10 µM; in [3], more than 10 µM; in experiment [4] it was more than 10 µM; in experiment [5] it was more than 10 µM; in experiment [6], more than 10 µM. In addition, the half-maximal activity concentration (AC50) in experiment [7] is more than 30 µM; in [8], more than 10 µM; in experiment [9] it was 13.4 µM; in experiment [10] it was more than 30 µM.

In the case of `CCCCCCC(C)(C)c1cc(O)c2c(c1)OC(C)(C)C1CCC(=O)CC21` (stereo not given) [NABILONE], the AC50 in experiment [1], in [2], in experiment [3], in [4], in [5] and in [6] was more than 30 µM each time. Also, the AC50 in experiment [7] was more than 30 µM; in [8] it was more than 30 µM; in experiment [9], 9.1 µM; in experiment [10], more than 30 µM.

Take `O=C(O)CCCc1ccccc1` [PHENYLBUTANOIC ACID]: the AC50 in [1] was more than 30 µM; in [2], more than 30 µM; in experiment [3], more than 30 µM; in experiment [4], more than 30 µM; in [5], more than 10 µM; in [6] it was more than 30 µM. For the same molecule, the concentration at half-maximal activity (AC50) in experiment [7] is more than 30 µM; in [8] it was more than 10 µM; in experiment [9], more than 10 µM; in experiment [10], more than 30 µM.

Turning to `Cc1c(Cl)cccc1Nc1ccccc1C(=O)O` [TOLFENAMIC ACID], the AC50 is more than 30 µM in experiment [1]; more than 30 µM in experiment [2]; more than 30 µM in [3]; 20 µM in experiment [4]; more than 30 µM in [5]; more than 30 µM in experiment [6]. The AC50 in experiment [7] was more than 30 µM; in experiment [8] it was 22 µM; in experiment [9], 12 µM; in experiment [10] it was 9.5 µM.

(Values after ChEMBL document CHEMBL5291721, “A preclinical secondary pharmacology resource illuminates target-adverse drug reaction associations of marketed drugs” (Nat Commun, 2023).)
